From PubChem BioAssay AID1117286 (Broad Institute, 2014)
Results filed as inconclusive are left out. Calls of active or inactive are those of the source.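 How the source made its calls: active means every test run gives a falling-signal AC50 no higher than twice the top tested dose; inconclusive means runs disagree, or a flat partial drop, or a poor fit; inactive means all runs inactive, including rising signal.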

Biological target: Endoplasmic reticulum aminopeptidase 2 (Homo sapiens) (UniProt Q6P179)
Sequence (Q6P179 whole entry, looked up): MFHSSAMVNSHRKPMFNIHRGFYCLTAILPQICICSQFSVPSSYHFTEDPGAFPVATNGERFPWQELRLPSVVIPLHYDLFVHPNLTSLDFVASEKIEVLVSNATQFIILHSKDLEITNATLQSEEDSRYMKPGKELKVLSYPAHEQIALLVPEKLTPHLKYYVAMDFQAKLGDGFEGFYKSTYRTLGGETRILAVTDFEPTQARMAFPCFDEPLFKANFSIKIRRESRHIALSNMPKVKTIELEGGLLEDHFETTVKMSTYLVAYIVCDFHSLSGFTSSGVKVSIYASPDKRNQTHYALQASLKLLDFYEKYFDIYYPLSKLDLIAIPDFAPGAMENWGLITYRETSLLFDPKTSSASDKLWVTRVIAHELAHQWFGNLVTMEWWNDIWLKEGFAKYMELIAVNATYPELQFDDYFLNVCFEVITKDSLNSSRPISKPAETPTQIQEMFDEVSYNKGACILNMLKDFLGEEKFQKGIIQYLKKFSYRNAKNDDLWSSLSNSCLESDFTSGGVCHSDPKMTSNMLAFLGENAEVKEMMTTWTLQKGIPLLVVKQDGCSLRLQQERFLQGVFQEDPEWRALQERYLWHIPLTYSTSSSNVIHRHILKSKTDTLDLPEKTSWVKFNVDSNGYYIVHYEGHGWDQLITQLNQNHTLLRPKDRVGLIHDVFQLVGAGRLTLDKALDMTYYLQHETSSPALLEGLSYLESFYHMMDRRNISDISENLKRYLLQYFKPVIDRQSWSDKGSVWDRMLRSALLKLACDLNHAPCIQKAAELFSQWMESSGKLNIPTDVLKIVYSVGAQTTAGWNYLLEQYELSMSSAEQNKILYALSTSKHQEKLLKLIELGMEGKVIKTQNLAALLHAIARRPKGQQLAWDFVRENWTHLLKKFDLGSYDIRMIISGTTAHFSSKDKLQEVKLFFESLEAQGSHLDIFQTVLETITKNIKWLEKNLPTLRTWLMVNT
Test: inhibition of recombinant ERAP2 Arg-AMC cleavage – biochemical, plate reader, dry powder samples, selectivity assay for selective ERAP1 modulator project, dose response (AID 1117286)
Settings: Recombinant ERAP2, Arg-AMC cleavage fluorescence, 1 h

AC50, inactive:
CC(=O)N1CCN(C(=O)[C@@H]2CCN2C(=O)Nc2ccc(C)cc2)CC1 > 100 µM
COc1ccc(C(=O)Nc2cc(C(F)(F)F)ccc2N2CCCCC2)cc1S(=O)(=O)O > 100 µM

Same assay, conditions: Recombinant ERAP2, Arg-AMC cleavage fluorescence, 1 h; at 26 µM (top of the series)

Activity change, negative = inhibition, inactive:
COc1ccc(C2=NN(c3ccc(C(=O)O)cc3)C(c3ccc(OC)c(OC)c3)C2)cc1 (configuration not stated)

Same assay, conditions: Recombinant ERAP2, Arg-AMC cleavage fluorescence, 1 h; at 50 µM (top of the series)

Activity change, negative = inhibition, inactive:
COc1ccc(C(=O)Nc2cc(C)ccc2N2CCCCC2)cc1S(=O)(=O)O
CC(=O)N1CCN(C(=O)C2(NC(=O)Nc3ccccc3)CCCC2)CC1
CC(=O)N1CCN(C(=O)C2(NC(=O)Nc3ccc(F)cc3)CCCCC2)CC1
COc1ccc(C(=O)O)cc1S(=O)(=O)Nc1cc(C)ccc1N1CCCCC1
O=S(=O)(Nc1cc(C(F)(F)F)ccc1N1CCCCC1)c1ccc(C(F)(F)F)cc1
O=S(=O)(Nc1cc(C(F)(F)F)ccc1N1CCCCC1)c1ccccc1
Cc1ccc(NC(=O)NC2(C(=O)N3CCOCC3)CCCCC2)cc1
COc1ccc(C(=O)O)cc1S(=O)(=O)Nc1cc(F)ccc1N1CCCCC1
COc1ccc(C(=O)Nc2cc(C(F)(F)F)ccc2N2CCCC2)cc1S(=O)(=O)O
CC(=O)N1CCN(C(=O)C2(NC(=O)Nc3cccc(F)c3)CCCCC2)CC1
COc1ccc(C(=O)O)cc1S(=O)(=O)Nc1cc(C(F)(F)F)ccc1N1CCCCC1
CC(=O)N1CCN(C(=O)C2(NC(=O)Nc3ccccc3)CCCCC2)CC1
O=S(=O)(Nc1cc(C(F)(F)F)ccc1N1CCCCC1)c1ccc(Cl)cc1
CC(=O)N1CCN(C(=O)C2(NC(=O)Nc3ccc(C(C)C)cc3)CCCCC2)CC1
CC(=O)N1CCN(C(=O)C2(NC(=O)Nc3cccc(C(F)(F)F)c3)CCCCC2)CC1
Cn1cnc(S(=O)(=O)Nc2cc(C(F)(F)F)ccc2N2CCCCC2)c1
O=S(=O)(Nc1cc(C(F)(F)F)ccc1N1CCCCC1)c1ccc(-c2ccccc2)cc1
CC(=O)N1CCN(C(=O)C2(NC(=O)Nc3ccccc3F)CCCCC2)CC1
COc1ccc(C(=O)Nc2cc(F)ccc2N2CCCCC2)cc1S(=O)(=O)O
CC(=O)N1CCN(C(=O)C2(NC(=O)Nc3ccccc3C(F)(F)F)CCCCC2)CC1
N#Cc1ccc(S(=O)(=O)Nc2cc(C(F)(F)F)ccc2N2CCCCC2)cc1
O=S(=O)(Nc1cc(C(F)(F)F)ccc1N1CCCCC1)c1ccc(Br)cc1
Cc1ccc(NC(=O)NC2(C(=O)N3CCNCC3)CCCCC2)cc1
CC(=O)N1CCN(C(=O)C2(NC(=O)Nc3ccc(C)cc3)CCCCC2)CC1
COc1ccc(C(=O)O)cc1S(=O)(=O)Nc1cc(C(F)(F)F)ccc1N1CCOCC1
COc1ccc(C(=O)O)cc1S(=O)(=O)Nc1cc(C(F)(F)F)ccc1N(C)C
CC(=O)N1CCN(C(=O)C2(NC(=O)NC(C)(C)C)CCCCC2)CC1
O=S(=O)(Nc1cc(C(F)(F)F)ccc1N1CCCCC1)c1ccc(F)cc1
CC(=O)N1CCN(C(=O)C2(NC(=O)Nc3ccc(C(F)(F)F)cc3)CCCC2)CC1
Cc1ccccc1S(=O)(=O)Nc1cc(C(F)(F)F)ccc1N1CCCCC1
CC(=O)N1CCN(C(=O)C2CCCN2C(=O)Nc2ccc(C)cc2)CC1 (configuration not stated)
O=C(Nc1cc(C(F)(F)F)ccc1N1CCCCC1)c1ccc(S(=O)(=O)O)cc1
O=[N+]([O-])c1cccc(S(=O)(=O)Nc2cc(C(F)(F)F)ccc2N2CCCCC2)c1
O=S(=O)(Nc1cc(C(F)(F)F)ccc1N1CCCCC1)c1cc(Cl)cc(Cl)c1
CC(=O)N1CCN(C(=O)C2(NC(=O)Nc3ccc(Cl)cc3)CCCCC2)CC1
COc1ccc(NC(=O)NC2(C(=O)N3CCN(C(C)=O)CC3)CCCCC2)cc1
O=[N+]([O-])c1ccc(S(=O)(=O)Nc2cc(C(F)(F)F)ccc2N2CCCCC2)c([N+](=O)[O-])c1
COc1ccc(C(=O)Nc2cccc(C(F)(F)F)c2)cc1S(=O)(=O)O
NC(=NCCc1c[nH]c2ccccc12)NS(=O)(=O)c1cc(F)ccc1F
COc1ccc(S(=O)(=O)Nc2cc(C(F)(F)F)ccc2N2CCCCC2)cc1
CC(=O)N1CCN(C(=O)C2(NC(=O)Nc3ccc(F)cc3)CCCC2)CC1
COc1ccc(C(=O)Nc2ccccc2N2CCCCC2)cc1S(=O)(=O)O
COc1cccc(NC(=O)NC2(C(=O)N3CCN(C(C)=O)CC3)CCCCC2)c1
CC(=O)N1CCN(C(=O)C2(NC(=O)NCCc3ccccc3)CCCCC2)CC1
CC(=O)N1CCN(C(=O)C(C)(C)NC(=O)Nc2ccc(C)cc2)CC1
CC(=O)N1CCN(C(=O)C2(NC(=O)Nc3ccc(C(C)C)cc3)CCCC2)CC1
COc1ccc(C(=O)O)cc1S(=O)(=O)Nc1ccccc1N1CCCCC1
Cc1ccc(NC(=O)NC2(C(=O)N3CCN(c4ccccc4)CC3)CCCCC2)cc1
CC(=O)N1CCN(C(=O)CNC(=O)Nc2ccc(C)cc2)CC1
